The values that follow come from article PMC8639918, “Mechanism of phosphate sensing and signaling revealed by rice SPX1-PHR2 complex structure” (Nature Communications, 2021).

Holding throughout (assay type): binding
In test [1] the target is T1, SPX1^1–259 (Oryza sativa, UniProt Q69XJ0).
T1 construct: residues 1-259 (C-terminally truncated), N-terminal 10xHis-MsyB tag cut with TEV, E. coli BL21(DE3), monomer
T1 sequence (Q69XJ0 1-259): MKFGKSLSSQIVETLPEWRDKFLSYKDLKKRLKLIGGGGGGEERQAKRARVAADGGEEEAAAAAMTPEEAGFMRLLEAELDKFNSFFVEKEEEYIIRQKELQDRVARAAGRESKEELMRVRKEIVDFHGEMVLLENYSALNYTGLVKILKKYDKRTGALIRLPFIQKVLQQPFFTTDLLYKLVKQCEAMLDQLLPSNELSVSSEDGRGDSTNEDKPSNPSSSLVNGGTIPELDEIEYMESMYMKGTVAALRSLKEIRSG
As to the kind of experiment: thermal shift assay (SYPRO Orange). As to conditions: 20 mM HEPES/NaOH pH 7.5, 200 mM NaCl; InsP6 0 to 250 μM.

For another test, the target named is T2, InsP6-SPX1-PHR2 complex (Oryza sativa, UniProt Q69XJ0).
T2 construct: SPX1 1-198 with T4 lysozyme fused to its C-terminus (crystallisation aid) plus Se-Met PHR2 248-380 (MYB and CC domains), tags cut with TEV, E. coli BL21(DE3), 1:1 heterodimer; with Protein PHOSPHATE STARVATION RESPONSE 2
Briefly: X-ray crystal structure, […] Å. The settings on record: basic groove between SPX1 helices α1, α2 and α4; allosteric.

Test [2] has as its target T3, SPX1^1–259 (Oryza sativa, UniProt Q69XJ0, K147A).
T3 construct: residues 1-259 (C-terminally truncated), N-terminal 10xHis-MsyB tag cut with TEV, E. coli BL21(DE3), monomer
T3 sequence (Q69XJ0 1-259 K147A): T1 sequence (Q69XJ0 1-259) with K147A
As to the kind of experiment: ITC. From the text:
ITC on SPX1^1–259 | SPX1 K147A mutation had little effect on InsP6 binding affinity
In general terms: In ITC the heat of successive injections is recorded.

The target in the next test is T4, SPX1^1–259▵N17 (Oryza sativa, UniProt Q69XJ0).
T4 construct: SPX1 1-259 without the N-terminal helix alpha1 (deltaN17, residues 1-17 deleted), N-terminal 10xHis-MsyB tag cut with TEV, E. coli BL21(DE3)
T4 sequence (Q69XJ0 18-259): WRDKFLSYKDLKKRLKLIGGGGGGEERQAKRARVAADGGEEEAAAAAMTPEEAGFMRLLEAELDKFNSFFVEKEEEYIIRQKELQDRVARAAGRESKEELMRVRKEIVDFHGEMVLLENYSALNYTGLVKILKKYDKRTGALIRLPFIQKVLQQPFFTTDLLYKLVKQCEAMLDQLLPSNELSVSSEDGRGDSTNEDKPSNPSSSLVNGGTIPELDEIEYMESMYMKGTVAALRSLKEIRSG
Briefly: ITC. As to conditions: 25 °C; 20 mM HEPES/NaOH pH 7.5, 200 mM NaCl, 2 mM beta-mercaptoethanol.

Test [3] concerns the target T5, SPX1^1–259 (Oryza sativa, UniProt Q69XJ0, Y25F/K29A/K151A).
T5 construct: residues 1-259 (C-terminally truncated), N-terminal 10xHis-MsyB tag cut with TEV, E. coli BL21(DE3), monomer
T5 sequence (Q69XJ0 1-259 Y25F/K29A/K151A): T1 sequence (Q69XJ0 1-259) with Y25F, K29A, K151A
As to the kind of experiment: ITC. The settings on record: 25 °C; 20 mM HEPES/NaOH pH 7.5, 200 mM NaCl, 2 mM beta-mercaptoethanol.

The target of test [4] is T1, SPX1^1–259. Briefly: ITC. As to conditions: 25 °C; 20 mM HEPES/NaOH pH 7.5, 200 mM NaCl, 2 mM beta-mercaptoethanol. From the text: ITC on SPX1^1–259 | In contrast to the moderate InsP6 binding ability of the wild-type protein

Each structure is given as a SMILES string. Changes are numbered by the printed parent chain.

T2 sequence (Q6Z156 with tags, fused parts or gaps V263M/L278M/L295M/L340M partner, one chain of several): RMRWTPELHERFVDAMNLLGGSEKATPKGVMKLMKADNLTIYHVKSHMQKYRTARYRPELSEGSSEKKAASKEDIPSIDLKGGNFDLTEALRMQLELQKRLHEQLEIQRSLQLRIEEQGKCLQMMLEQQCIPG

Consider `O=P(O)(O)O[C@H]1[C@H](OP(=O)(O)O)[C@@H](OP(=O)(O)O)[C@H](OP(=O)(O)O)[C@@H](OP(=O)(O)O)[C@H]1OP(=O)(O)O` [InsP6], for which the Tm entry on SPX1^1–259 [1] was “InsP6 could increase the melting temperature (Tm) of SPX1 greatly”. Also, the “X-ray crystal structure, 2.6 Å” value on InsP6-SPX1-PHR2 complex is listed as “each captured by an SPX1 molecule via a highly basic surface groove”. Further, the Kd on SPX1^1–259 [2] is 5.69 ± 1.46 µM; at SPX1^1–259▵N17 it was 34.1 ± 1.95 µM; at SPX1^1–259 [3], “the SPX1 mutant lost its InsP6-binding activity”; at SPX1^1–259 [4], 5.5 ± 0.93 µM.

What is called Kd is the constant that tells how readily two partners part at equilibrium. Read a high Kd as a looser complex.
